What was measured:
[1] = target: T1, Cbl-b (aa36-427) (Homo sapiens, UniProt Q13191); experiment: Co-expressed Cbl-b with BirA biochemical assay (CBLB/E2-Ub binding, HTRF); details: 0.6 nM Cbl-b co-expressed with BirA, HTRF; read-out: co-express CBLB/E2-Ub-binding assay IC50
T1 construct: Cbl-b (aa36-427, in-house); made in house
Source text: (§1) The assay in the absence of a Cbl-b/Cbl inhibitor, where phosphorylation of Cbl-b/Cbl by the Src kinase allows UbcH5B-Ub to bind to Cbl-b/Cbl and brings the Bodipy-Fluorescein tagged ubiquitin in proximity to the streptavidin-terbium bound to the N-terminal biotinylated Avi-tagged Cbl-b/Cbl. […] The lack of a FRET signal indicates Cbl-b/Cbl is inhibited by the Cbl-b/Cbl inhibitor.

[2] = target: T2, Cbl (aa49-434) (Homo sapiens, UniProt P22681); experiment: Co-expressed Cbl with BirA biochemical assay (CBL/E2-Ub binding, HTRF); details: 0.6 nM Cbl co-expressed with BirA, read-out: co-express CBL/E2-Ub-binding assay IC50
T2 construct: Cbl (aa49-434, in-house); made in house
T2 sequence (P22681 49-434): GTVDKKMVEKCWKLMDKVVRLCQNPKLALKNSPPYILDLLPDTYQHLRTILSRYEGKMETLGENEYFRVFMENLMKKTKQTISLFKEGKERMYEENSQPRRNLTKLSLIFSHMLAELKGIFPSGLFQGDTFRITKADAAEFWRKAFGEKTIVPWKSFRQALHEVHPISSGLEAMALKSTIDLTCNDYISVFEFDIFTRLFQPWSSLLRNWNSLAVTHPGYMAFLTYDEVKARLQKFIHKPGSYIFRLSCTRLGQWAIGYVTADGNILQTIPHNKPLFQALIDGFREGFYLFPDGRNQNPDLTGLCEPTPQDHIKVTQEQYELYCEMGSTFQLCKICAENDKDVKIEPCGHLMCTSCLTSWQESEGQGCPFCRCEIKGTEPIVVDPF
Source text: as §1

T1 sequence (Q13191 36-427): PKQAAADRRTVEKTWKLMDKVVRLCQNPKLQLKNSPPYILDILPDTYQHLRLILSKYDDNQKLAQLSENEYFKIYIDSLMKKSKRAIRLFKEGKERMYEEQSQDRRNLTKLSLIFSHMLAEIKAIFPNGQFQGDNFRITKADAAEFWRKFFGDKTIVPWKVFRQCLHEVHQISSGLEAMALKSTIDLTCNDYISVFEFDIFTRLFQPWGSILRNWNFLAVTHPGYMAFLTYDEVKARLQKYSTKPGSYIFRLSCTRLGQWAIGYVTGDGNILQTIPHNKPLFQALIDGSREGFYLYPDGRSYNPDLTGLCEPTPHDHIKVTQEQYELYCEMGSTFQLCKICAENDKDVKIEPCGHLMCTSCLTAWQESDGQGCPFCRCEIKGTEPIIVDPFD

Row | Compound | IC50 [1] [nM] | IC50 [2] [nM]
1 | C[C@H]1CCCN(Cc2cc(C(=O)Nc3cccc([C@]4(Cc5nncn5C)C[C@@H](C#N)C4)c3)nc3c(F)c[nH]c23)C1 [Compound B20, N-(3-((1r,3S)-3-cyano-1-((4-methyl-4H-1,2,4-triazol-3-yl)methyl)cyclobutyl)phenyl)-3-fluoro-7-(((S)-3-methylpiperidin-1-yl)methyl)-1H-pyrrolo[3,2-b]pyridine-5-carboxamide] | 1.8 | 3.9
2 | Cn1cnnc1[C@]1(c2cccc(NC(=O)c3cc(CNC4(C)CC4)cn4c(F)cnc34)c2)C[C@H](CC#N)C1 [Compound A17, N-(3-((1s, 3s)-3-(cyanomethyl)-1-(4-methyl-4H-1,2,4-triazol-3-yl)cyclobutyl)phenyl)-3-fluoro-6-(((1-methylcyclopropyl)amino)methyl)imidazo[1,2-a]pyridine-8-carboxamide] | 0.8 | 20.7
3 | Cn1cnnc1[C@]1(c2cncc(NC(=O)c3cc(CNC4(C)CC4)c4ccsc4n3)c2)C[C@H](C)C1 [Compound B51, N-(5-((1s, 3s)-3-methyl-1-(4-methyl-4H-1,2,4-triazol-3-yl)cyclobutyl)pyridin-3-yl)-4-(((1-methylcyclopropyl)amino)methyl)thieno[2,3-b]pyridine-6-carboxamide] | 1.4 | 13
4 | CC(C)CNCc1cc(C(=O)Nc2cccc([C@]3(c4nncn4C)C[C@@H](CC#N)C3)c2)nc2cc[nH]c12 [Compound B29, N-(3-((1s, 3s)-3-(cyanomethyl)-1-(4-methyl-4H-1,2,4-triazol-3-yl)cyclobutyl)phenyl)-7-((isobutylamino)methyl)-1H-pyrrolo[3,2-b]pyridine-5-carboxamide] | 1.2 | 2.3
5 | Cn1cnnc1[C@]1(c2cccc(NC(=O)c3cc(CNCC4(C)CCCC4)cn4ccnc34)c2)C[C@H](CC#N)C1 [Compound A15, N-(3-((1s, 3s)-3-(cyanomethyl)-1-(4-methyl-4H-1,2,4-triazol-3-yl)cyclobutyl)phenyl)-6-((((1-methylcyclopentyl)methyl)amino)methyl)imidazo[1,2-a]pyridine-8-carboxamide] | 0.9 | 4
6 | Cc1c[nH]c2c(CNCC(C)C)cc(C(=O)Nc3cncc([C@]4(c5nncn5C)C[C@@H](C)C4)c3)nc12 [Compound B21, 7-((isobutylamino)methyl)-3-methyl-N-(5-((1s, 3s)-3-methyl-1-(4-methyl-4H-1,2,4-triazol-3-yl)cyclobutyl)pyridin-3-yl)-1H-pyrrolo[3,2-b]pyridine-5-carboxamide] | 2.2 | 7.5
7 | Cn1cnnc1[C@]1(c2cccc(NC(=O)c3cc(CNCC4CCC4)cn4ccnc34)c2)C[C@H](CC#N)C1 [Compound A43, N-(3-((1s, 3s)-3-(cyanomethyl)-1-(4-methyl-4H-1,2,4-triazol-3-yl)cyclobutyl)phenyl)-6-(((cyclobutylmethyl)amino)methyl)imidazo[1,2-a]pyridine-8-carboxamide] | 2 | 12
8 | C[C@H](NCc1cc(C(=O)Nc2cccc([C@]3(c4nncn4C)C[C@@H](C)C3)c2)c2ncc(Cl)n2c1)C1CCC1 [Compound A69, 3-chloro-6-((((S)-1-cyclobutylethyl)amino)methyl)-N-(3-((1s,3R)-3-methyl-1-(4-methyl-4H-1,2,4-triazol-3-yl)cyclobutyl)phenyl)imidazo[1,2-a]pyridine-8-carboxamide] | 0.8 | 1.7
9 | C[C@H]1CCCN(Cc2cc(C(=O)Nc3cccc([C@]4(c5nncn5C)C[C@@H](CC#N)C4)c3)n3ncc(Cl)c3c2)C1 [Compound A21, 3-chloro-N-(3-((1s,3R)-3-(cyanomethyl)-1-(4-methyl-4H-1,2,4-triazol-3-yl)cyclobutyl)phenyl)-5-(((S)-3-methylpiperidin-1-yl)methyl)pyrazolo[1,5-a]pyridine-7-carboxamide] | 2.9 | 31
10 | Cn1cnnc1[C@]1(c2cccc(NC(=O)c3cc(CNC4(C)CC4)cn4c(Cl)cnc34)c2)C[C@H](C)C1 [Compound A67, 3-chloro-N-(3-((1s, 3s)-3-methyl-1-(4-methyl-4H-1,2,4-triazol-3-yl)cyclobutyl)phenyl)-6-(((1-methylcyclopropyl)amino)methyl)imidazo[1,2-a]pyridine-8-carboxamide] | 0.5 | 2.8
11 | Cn1cnnc1[C@]1(c2cccc(NC(=O)c3cc(CNC4(C)CC4)cc4c(F)cnn34)c2)C[C@H](CC#N)C1 [Compound A94, N-(3-((1s, 3s)-3-(cyanomethyl)-1-(4-methyl-4H-1,2,4-triazol-3-yl)cyclobutyl)phenyl)-3-fluoro-5-(((1-methylcyclopropyl)amino)methyl)pyrazolo[1,5-a]pyridine-7-carboxamide] | 0.5 | 5.9
12 | Cn1cnnc1[C@]1(c2cccc(NC(=O)c3cc(CNCC4CCCC4)cn4ccnc34)c2)C[C@H](CC#N)C1 [Compound A26, N-(3-((1s, 3s)-3-(cyanomethyl)-1-(4-methyl-4H-1,2,4-triazol-3-yl)cyclobutyl)phenyl)-6-(((cyclopentylmethyl)amino)methyl)imidazo[1,2-a]pyridine-8-carboxamide] | 1.3 | 6.3
13 | Cn1cnnc1[C@]1(c2cccc(NC(=O)c3cc(CNC4(C)CC4)cc4c(F)cnn34)c2)C[C@H](C)C1 [Compound A92, 3-fluoro-N-(3-((1s, 3s)-3-methyl-1-(4-methyl-4H-1,2,4-triazol-3-yl)cyclobutyl)phenyl)-5-(((1-methylcyclopropyl)amino)methyl)pyrazolo[1,5-a]pyridine-7-carboxamide] | 0.4 | 2.5
14 | Cn1cnnc1[C@]1(c2cccc(NC(=O)c3cc(CNC4(C)CCC4)cn4c(Cl)cnc34)c2)C[C@H](C)C1 [Compound A66, 3-chloro-N-(3-((1s, 3s)-3-methyl-1-(4-methyl-4H-1,2,4-triazol-3-yl)cyclobutyl)phenyl)-6-(((1-methylcyclobutyl)amino)methyl)imidazo[1,2-a]pyridine-8-carboxamide] | 1.1 | 3.4
15 | Cn1cnnc1[C@]1(c2cncc(NC(=O)c3cc(CNC4(C)CC4)cn4ccnc34)c2)C[C@H](C)C1 [Compound A75, N-(5-((1s, 3s)-3-methyl-1-(4-methyl-4H-1,2,4-triazol-3-yl)cyclobutyl)pyridin-3-yl)-6-(((1-methylcyclopropyl)amino)methyl)imidazo[1,2-a]pyridine-8-carboxamide] | 1.7 | 5.5

Further lines, results first:

Row | IC50 [1] [nM] | IC50 [2] [nM] | Compound
16 | 0.8 | 2.9 | C[C@H](NCc1cc(C(=O)Nc2cccc([C@]3(c4nncn4C)C[C@@H](CC#N)C3)c2)nc2c1CCC2(C)C)C1CC1 [Compound C39, N-(3-((1s,3R)-3-(cyanomethyl)-1-(4-methyl-4H-1,2,4-triazol-3-yl)cyclobutyl)phenyl)-4-((((S)-1-cyclopropylethyl)amino)methyl)-7,7-dimethyl-6,7-dihydro-5H-cyclopenta[b]pyridine-2-carboxamide]
17 | 2.3 | 26.6 | C[C@H]1CCCN(Cc2cc(C(=O)Nc3cccc([C@]4(c5nncn5C)C[C@@H](CC#N)C4)c3)nc3c2OCC3(C)C)C1 [Compound C10, 3,3-dimethyl-7-{[(3S)-3-methylpiperidin-1-yl]methyl}-N-{3-[(1s, 3s)-3-(cyanomethyl)-1-(4-methyl-1,2,4-triazol-3-yl)cyclobutyl]phenyl}-2H-furo[3,2-b]pyridine-5-carboxamide]
18 | 1.87 | 7.72 | CC(C)CNCc1cc(C(=O)Nc2cccc([C@]3(c4nncn4C)C[C@@H](CC#N)C3)c2)nc2c1NCC2(C)C [Compound C32, 3,3-dimethyl-7-{[(2-methylpropyl)amino]methyl}-N-{3-[(1s, 3s)-3-(cyanomethyl)-1-(4-methyl-1,2,4-triazol-3-yl)cyclobutyl]phenyl}-1H,2H-pyrrolo[3,2-b]pyridine-5-carboxamide]
19 | 2.3 | 25 | C[C@H](NCc1cc(C(=O)Nc2cccc([C@]3(c4nncn4C)C[C@@H](CC#N)C3)c2)nc2c1OCC2(C)C)C1CC1 [Compound C26, N-(3-((1s,3R)-3-(cyanomethyl)-1-(4-methyl-4H-1,2,4-triazol-3-yl)cyclobutyl)phenyl)-7-((((S)-1-cyclopropylethyl)amino)methyl)-3,3-dimethyl-2,3-dihydrofuro[3,2-b]pyridine-5-carboxamide]
20 | 1.4 | 1.3 | C[C@H]1CCCN(Cc2cc(C(=O)Nc3cccc([C@]4(Cc5nncn5C)C[C@@H](C#N)C4)c3)nc3c2NCC3(C)C)C1 [Compound C12, 3,3-dimethyl-7-{[(3S)-3-methylpiperidin-1-yl]methyl}-N-{3-[(1r, 3r)-3-cyano-1-[(4-methyl-1,2,4-triazol-3-yl)methyl]cyclobutyl]phenyl}-1H,2H-pyrrolo[3,2-b]pyridine-5-carboxamide]

Source: US20250163047A1, “HETEROCYCLIC COMPOUNDS, COMPOSITIONS THEREOF, AND METHODS OF TREATMENT THEREWITH” (BeiGene, Ltd., priority 2022, published 2025)
